Experiment: Example 3: phase 3 trial, enavogliflozin 0.3 mg vs dapagliflozin 10 mg once a day for 24 weeks added to metformin and gemigliptin in patients with type 2 diabetes (same endpoints, rescue drug)
Type: in vivo, human
Experimental: 1) when Metformin (≥1,000 mg/Day) was Administered at a Constant Dose for at Least 8 Weeks Prior to Pre-Visit (Pre-Screening) • Metformin (≥1,000 mg/day) and gemigliptin (50 mg/day) were co-administered during the 8-week stabilization period. […] 4) when Metformin (≥1,000 mg/Day) and Gemigliptin (50 mg/Day) were Co-Administered at Constant Doses for at Least 8 Weeks Prior to Pre-Visit (Prescreening) • Without a separate stabilization period, Pre-visit (pre-screening) was Visit 1 (screening).
Subjects who met the inclusion/exclusion criteria continued to receive metformin and gemigliptin while receiving a placebo of the clinical trial drug in a single-blind (subject-blinded) state for a 2-week run-in period.
Here, the randomized subjects were stratified according to the administration therapy (co-administration with two or less agents (one or two agents) or three or more agents) of a conventional hypoglycemic agent (before washout of another hypoglycemic agent) within 24 weeks prior to obtaining written informed consent and by an HbA1c value (<8% or ≥8%) at Visit 1 (screening) measured in the central laboratory.
The randomized subjects were administered two tablets of the clinical trial drug corresponding to each administration group once a day, and then visited the institution at weeks 6, 12, 18, and 24 during the 24-week administration period to conduct efficacy and safety assessments. In addition, during the clinical trial period, they were instructed to exercise regularly and control their diet without changing their daily life patterns.
• 1) Change in HbA1c at week 24 after administration of clinical trial drug compared to Visit 2 (randomization)
• 1) Change in HbA1c at each time point of weeks 6, 12, and 18 after administration of clinical trial drug compared to Visit 2 (randomization) • 2) Change in FPG at each time point of weeks 6, 12, 18, and 24 after administration of clinical trial drug compared to Visit 2 (randomization) • 3) Proportion of subjects achieving HbA1c<7% at each time point of weeks 6, 12, 18, and 24 after administration of clinical trial drug • 4) Proportion of subjects achieving HbA1c<6.5% at each time point of weeks 6, 12, 18, and 24 after administration of clinical trial drug • 5) Proportion of subjects achieving therapeutic response (HbA1c change (HbA1c at Visit 2—HbA1c at each evaluation time point)>0.5% or HbA1c<7% at each evaluation time point compared to Visit 2 (randomization)) at each time point of weeks 6, 12, 18, and 24 after administration of clinical trial drug • 6) Proportion of subjects achieving therapeutic response (HbA1c change (HbA1c at Visit 2—HbA1c at each evaluation time point)>0.7% or HbA1c<7% at each evaluation time point compared to Visit 2 (randomization)) at each time point of weeks 6, 12, 18, and 24 after administration of clinical trial drug • 7) Proportion of subjects achieving therapeutic response (HbA1c change (HbA1c at Visit 2—HbA1c at each evaluation time point)>1% or HbA1c<7% at each evaluation time point compared to Visit 2 (randomization)) at each time point of weeks 6, 12, 18, and 24 after administration of clinical trial drug

[1] = week 6, modified per-protocol set 1, enavogliflozin 0.3 mg vs dapagliflozin 10 mg
[2] = week 6, modified per-protocol set 1, enavogliflozin 0.3 mg, dapagliflozin 10 mg

Structure (SMILES): OC[C@H]1O[C@@H](c2cc(Cc3ccc(C4CC4)cc3)c(Cl)c3c2CCO3)[C@H](O)[C@@H](O)[C@@H]1O [Enavogliflozin, (2S,3R,4R,5S,6R)-2-(7-chloro-6 (4-cyclopropylbenzyl)-2,3-dihydrobenzofuran-4-yl)-6-(hydroxymethyl)tetrahydro-2H-pyran-3,4,5-triol]
- Incidence of adverse events or adverse drug reactions between groups (24 weeks, vs dapagliflozin): no statistically significant differences
- HbA1c, Mean (SD) (Baseline, PPS): 7.79%
- HbA1c, Median (Baseline, PPS): 7.60%
- Non-inferiority (margin 0.35) (HbA1c change at week 24, vs dapagliflozin): not inferior
- HbA1c change from baseline, ANCOVA LS mean (SE) (Week 24, PPS): −0.92 % p
- HbA1c change from baseline, Mean (SD) (Week 24, PPS): −0.93 % p
- HbA1c change from baseline, Median (Week 24, PPS): −0.83 % p
- HbA1c, Mean (SD) (Week 24, PPS): 6.86%
- HbA1c, Median (Week 24, PPS): 6.76%
- HbA1c change from baseline, LS mean difference (Week 24, PPS, enavogliflozin minus dapagliflozin): −0.06 % p
- Non-inferiority (UCI < 0.35%) in HbA1c change (Week 24, PPS, enavogliflozin vs dapagliflozin): Yes
- FPG change from baseline, LS mean (SE) (week 6): −25.96(1.42) mg/dL
- HDL-C change from baseline, LS mean (SE) (week 6): 1.96(0.57) mg/dL
- HOMA-IR change from baseline, LS mean (SE) (week 6): −0.94(0.15)
- HOMA-β change from baseline, LS mean (SE) (week 6): 8.13(3.08)
- HbA1c change from baseline, LS mean (SE) (week 6): −0.73(0.03) % p
- LDL-C change from baseline, LS mean (SE) (week 6): 2.49(1.81) mg/dL
- UACR change from baseline, LS mean (SE) (week 6): −8.76(3.43) g/kg
- UGCR change from baseline, LS mean (SE) (week 6): 58.10(2.18) mg/mg
- adiponectin change from baseline, LS mean (SE) (week 6): −0.10 (0.34) μg/mL
- body weight change from baseline, LS mean (SE) (week 6): −1.92(0.17) kg
- diastolic blood pressure change from baseline, LS mean (SE) (week 6): −2.04(0.70) mmHg
- fasting C-peptide change from baseline, LS mean (SE) (week 6): −0.05(0.02) ng/mL
- leptin change from baseline, LS mean (SE) (week 6): −1.83(0.45) ng/mL
- systolic blood pressure change from baseline, LS mean (SE) (week 6): −2.76(0.90) mmHg
- total cholesterol change from baseline, LS mean (SE) (week 6): 5.07 (1.97) mg/dL
- triglyceride change from baseline, LS mean (SE) (week 6): −6.85(4.47) mg/dL
- FPG change from baseline, LS mean difference (week 6, vs dapagliflozin): -3.24 mg/dL
- HDL-C change from baseline, LS mean difference (week 6, vs dapagliflozin): 0.83 mg/dL
- HOMA-IR change from baseline, LS mean difference (week 6, vs dapagliflozin): 0.05
- HOMA-β change from baseline, LS mean difference (week 6, vs dapagliflozin): 4.93
- HbA1c change from baseline, LS mean difference (week 6, vs dapagliflozin): −0.03 % p
- LDL-C change from baseline, LS mean difference (week 6, vs dapagliflozin): 0.57 mg/dL
- Odds ratio for achieving HbA1c<6.5% (week 6, vs dapagliflozin): 0.65
- Odds ratio for achieving HbA1c<7% (week 6, vs dapagliflozin): 1.22
- Odds ratio, therapeutic response (HbA1c change >0.5% or HbA1c<7%) (week 6, vs dapagliflozin): 1.52
- Odds ratio, therapeutic response (HbA1c change >0.7% or HbA1c<7%) (week 6, vs dapagliflozin): 1.16
- Odds ratio, therapeutic response (HbA1c change >1% or HbA1c<7%) (week 6, vs dapagliflozin): 1.38
- UACR change from baseline, LS mean difference (week 6, vs dapagliflozin): 6.09 g/kg
- UGCR change from baseline, LS mean difference (week 6, vs dapagliflozin): 12.35 mg/mg
- adiponectin change from baseline, LS mean difference (week 6, vs dapagliflozin): -0.47 µg/mL
- body weight change from baseline, LS mean difference (week 6, vs dapagliflozin): -0.13 kg
- diastolic blood pressure change from baseline, LS mean difference (week 6, vs dapagliflozin): −0.16 mmHg
- fasting C-peptide change from baseline, LS mean difference (week 6, vs dapagliflozin): -0.01 ng/mL
- leptin change from baseline, LS mean difference (week 6, vs dapagliflozin): 0.20 ng/mL
- systolic blood pressure change from baseline, LS mean difference (week 6, vs dapagliflozin): 0.73 mmHg
- total cholesterol change from baseline, LS mean difference (week 6, vs dapagliflozin): 2.45 mg/dL
- triglyceride change from baseline, LS mean difference (week 6, vs dapagliflozin): -1.46 mg/dL
- Change from baseline in HDL-C, ANCOVA LS mean difference [1]: 0.83 mg/dL
- Change from baseline in LDL-C, ANCOVA LS mean difference [1]: 0.57 mg/dL
- Change from baseline in total cholesterol, ANCOVA LS mean difference [1]: 2.45 mg/dL
- Change from baseline in triglycerides, ANCOVA LS mean difference [1]: -1.46 mg/dL
- Change from baseline in HDL-C, ANCOVA LS mean [2]: 1.96 mg/dL
- Change from baseline in HDL-C, Mean [2]: 1.90 mg/dL
- Change from baseline in HDL-C, Median [2]: 2.00 mg/dL
- Change from baseline in LDL-C, ANCOVA LS mean [2]: 2.49 mg/dL
- Change from baseline in LDL-C, Mean [2]: 2.42 mg/dL
- Change from baseline in LDL-C, Median [2]: -1.00 mg/dL
- Change from baseline in total cholesterol, ANCOVA LS mean [2]: 5.07 mg/dL
- Change from baseline in total cholesterol, Mean [2]: 4.65 mg/dL
- Change from baseline in total cholesterol, Median [2]: 3.00 mg/dL
- Change from baseline in triglycerides, ANCOVA LS mean [2]: -6.85 mg/dL
- Change from baseline in triglycerides, Mean [2]: -4.37 mg/dL
- Change from baseline in triglycerides, Median [2]: -1.00 mg/dL
- Fasting HDL-C, Mean [2]: 47.99 mg/dL
- Fasting HDL-C, Median [2]: 46.00 mg/dL
- Fasting LDL-C, Mean [2]: 73.35 mg/dL
- Fasting LDL-C, Median [2]: 68.00 mg/dL
- Fasting total cholesterol, Mean [2]: 138.43 mg/dL
- Fasting triglycerides, Mean [2]: 112.71 mg/dL
- Fasting triglycerides, Median [2]: 101.00 mg/dL
- fasting Total cholesterol, Median [2]: 134.00 mg/dL

Reference: patent US20260130933A1, “PHARMACEUTICAL COMPOSITION FOR PREVENTION OR TREATMENT OF NEPHROPATHY AND/OR DIABETES MELLITUS, COMPRISING ENAVOGLIFLOZIN” (DAEWOONG PHARMACEUTICAL CO., LTD., priority 2022, published 2026)
